Patent US11419866B2, “Pharmaceutical composition for sustained release delivery of buprenorphine” (Foresee Pharmaceuticals Co., Ltd., priority 2018, dated 2022)
Marks after values point to notes of the source that are not given here.

Assays:
[1] = Color stabilization by antioxidant in buprenorphine formulation, visual inspection (Example 3); format: physicochemical; conditions: overtime under stress condition
[2] = Solubility of buprenorphine in BA/OA combination vehicles at room temperature

**Q.** Which “capacity of color mitigation in buprenorphine formulation” value (from here on “capacity of color mitigation”) [1] does the source give for `N[C@@H](CS)C(=O)O` [Cys, cysteine] here?
**A.** milder color stabilizing effect

**Q.** For `O=C([O-])CS.[Na+]` [STG, sodium thioglycolate], which “capacity of color mitigation” value [1] is on record?
**A.** stronger capacity of color mitigation

**Q.** What does the source list for `OCC(O)CS` (stereo not shown) [MTG, monothioglycerol]?
**A.** capacity of color mitigation in buprenorphine formulation [1]: stronger capacity of color mitigation; benzyl aldehyde formation promoted by thiolated antioxidant (BA/OA solution): positive benzyl aldehyde formation; benzyl aldehyde formation with addition of VC (thiolated antioxidant containing BA/OA solution): inhibition effect of benzyl aldehyde

**Q.** With `O=C(O)CCCCC1CCSS1` (stereo not shown) [LipA, lipoic acid] as the molecule, how does the “capacity of color mitigation” value [1] read?
**A.** milder color stabilizing effect

**Q.** Which Solubility of buprenorphine ([2]; BA/OA vehicle, OA wt % 0, room temperature) does the source give for `CO[C@]12CC[C@@]3(C[C@@H]1[C@](C)(O)C(C)(C)C)[C@H]1Cc4ccc(O)c5c4[C@@]3(CCN1CC1CC1)[C@H]2O5` [buprenorphine, (25)-2-[(−)-(5R,6R,7R,14S)-9a-cyclo-propyl-methyl-4,5-epoxy-6,14-ethano-3-hydroxy-6-methoxymorphinan-7-yl]-3,3-di-methylbutan-2-ol] here?
**A.** 21.2%

**Q.** What about the Solubility of buprenorphine ([2]; BA/OA vehicle, OA wt % 5, room temperature) of the same molecule?
**A.** 22.5%

**Q.** And the Solubility of buprenorphine ([2]; BA/OA vehicle, OA wt % 10, room temperature)?
**A.** 25.4%

**Q.** And the Solubility of buprenorphine ([2]; BA/OA vehicle, OA wt % 15, room temperature)?
**A.** 30.7%*

**Q.** And the Solubility of buprenorphine ([2]; BA/OA vehicle, OA wt % 18, room temperature)?
**A.** 30.8%*

**Q.** What about the Solubility of buprenorphine ([2]; BA/OA vehicle, OA wt % 30, room temperature) of the same molecule?
**A.** 33.1%*

**Q.** What about the Solubility of buprenorphine ([2]; BA/OA vehicle, OA wt % 40, room temperature) of the same molecule?
**A.** 36.2%*

**Q.** What about the Solubility of buprenorphine ([2]; OA wt % 100, room temperature) of the same molecule?
**A.** 27.7%

**Q.** For `N[C@@H](CCC(=O)N[C@@H](CS)C(=O)NCC(=O)O)C(=O)O` [Glu, glutathione], which “capacity of color mitigation” value [1] is on record?
**A.** milder color stabilizing effect

**Q.** Which “capacity of color mitigation” value [1] does the source give for `O=C(O)CS` [TGA, thioglycolic acid] here?
**A.** stronger capacity of color mitigation
